Measured values: PubChem BioAssay (NCI)
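Protocol summary: plate cells (96-well), add compound at 5 concentrations, incubate 48 h, interpolate endpoints linearly. At the GI50, growth is halved. TGI: total growth inhibition.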 Where a SMILES comes first, the peptide text is derived from it. [ ]: non-standard residue; d: D form. The star is where a group is joined. X13 = OC[C@H](CC1CCCCC1)N*; Aib = CC(C)(N)C(=O)O

Columns and labels:
Assay in all cases: growth of human tumour cells (NCI), 48 h
COLO 205 colon = system: COLO 205 colon
HOP-62 NSCLC = system: HOP-62 NSCLC
EKVX NSCLC = system: EKVX NSCLC
HS 578T breast = system: HS 578T breast
BT-549 breast = system: BT-549 breast
MDA-MB-435 = system: MDA-MB-435
IGROV1 ovarian = system: IGROV1 ovarian
A549 NSCLC = system: A549 NSCLC
T-47D breast = system: T-47D breast
786-0 renal = system: 786-0 renal
SNB-19 CNS = system: SNB-19 CNS
HT29 colon = system: HT29 colon
OVCAR-8 ovarian = system: OVCAR-8 ovarian
NCI-H522 lung = system: NCI-H522 lung
MDA-MB-231 breast = system: MDA-MB-231 breast
A498 renal = system: A498 renal
OVCAR-5 ovarian = system: OVCAR-5 ovarian
OVCAR-4 ovarian = system: OVCAR-4 ovarian
UO-31 renal = system: UO-31 renal
CCRF-CEM leukemia = system: CCRF-CEM leukemia
MALME-3M melanoma = system: MALME-3M melanoma
RXF 393 renal = system: RXF 393 renal
MCF7 breast = system: MCF7 breast
HCC-2998 colon = system: HCC-2998 colon
SR leukemia = system: SR leukemia
NCI/ADR-RES ovarian = system: NCI/ADR-RES ovarian
TK-10 renal = system: TK-10 renal
SW-620 colon = system: SW-620 colon
M14 melanoma = system: M14 melanoma
SK-MEL-28 melanoma = system: SK-MEL-28 melanoma
U251 CNS = system: U251 CNS
SK-MEL-5 melanoma = system: SK-MEL-5 melanoma
LOX IMVI melanoma = system: LOX IMVI melanoma
NCI-H226 lung = system: NCI-H226 lung
K-562 leukemia = system: K-562 leukemia
SF-295 CNS = system: SF-295 CNS
SF-268 CNS = system: SF-268 CNS
NCI-H460 lung = system: NCI-H460 lung
HCT-15 colon = system: HCT-15 colon
OVCAR-3 ovarian = system: OVCAR-3 ovarian
SK-MEL-2 melanoma = system: SK-MEL-2 melanoma
SK-OV-3 ovarian = system: SK-OV-3 ovarian
RPMI-8226 leukemia = system: RPMI-8226 leukemia
HCT-116 colon = system: HCT-116 colon
UACC-62 melanoma = system: UACC-62 melanoma
KM12 colon = system: KM12 colon
HOP-92 NSCLC = system: HOP-92 NSCLC
SN12C renal = system: SN12C renal
ACHN renal = system: ACHN renal
DU-145 prostate = system: DU-145 prostate
HL-60(TB) leukemia = system: HL-60(TB) leukemia
UACC-257 melanoma = system: UACC-257 melanoma
NCI-H23 lung = system: NCI-H23 lung
MOLT-4 leukemia = system: MOLT-4 leukemia
SNB-75 CNS = system: SNB-75 CNS
SF-539 CNS = system: SF-539 CNS
PC-3 prostate = system: PC-3 prostate

Compound CC(=O)NC(C)(C)C(=O)N[C@@H](C)C(=O)NC(C)(C)C(=O)N[C@@H](C)C(=O)NC(C)(C)C(=O)N[C@@H](C)C(=O)N[C@@H](CCC(N)=O)C(=O)NC(C)(C)C(=O)N[C@H](C(=O)NC(C)(C)C(=O)NCC(=O)N[C@@H](CC(C)C)C(=O)NC(C)(C)C(=O)N1CCC[C@H]1C(=O)N[C@H](C(=O)NC(C)(C)C(=O)NC(C)(C)C(=O)N[C@@H](CCC(N)=O)C(=O)N[C@@H](CCC(N)=O)C(=O)N[C@H](CO)CC1CCCCC1)C(C)C)C(C)C (Ac-[Aib]A[Aib]A[Aib]AQ[Aib]V[Aib]GL[Aib]PV[Aib][Aib]QQ-X13) has a GI50 (COLO 205 colon) of 178 nM, a TGI (COLO 205 colon) of 1220 nM and a GI50 (HOP-62 NSCLC) of over 5 µM. The TGI (HOP-62 NSCLC) was over 5 µM, the GI50 (EKVX NSCLC) was 2290 nM and the TGI (EKVX NSCLC) was over 5 µM. For the same compound, the GI50 (HS 578T breast) was 3.71 µM, the TGI (HS 578T breast) was over 5 µM and the GI50 (BT-549 breast) was 1430 nM. It also gave a TGI (BT-549 breast) of over 5 µM, a GI50 (MDA-MB-435) of 834 nM and a TGI (MDA-MB-435) of over 5 µM. It also gave a GI50 (IGROV1 ovarian) of 3.06 µM, a TGI (IGROV1 ovarian) of over 5 µM and a GI50 (A549 NSCLC) of over 5 µM. It also gave a TGI (A549 NSCLC) of over 5 µM, a GI50 (T-47D breast) of 1260 nM and a TGI (T-47D breast) of over 5 µM. It also gave a GI50 (786-0 renal) of over 5 µM, a TGI (786-0 renal) of over 5 µM and a GI50 (SNB-19 CNS) of 1790 nM. The TGI (SNB-19 CNS) was over 5 µM, the GI50 (HT29 colon) was 286 nM and the TGI (HT29 colon) was over 5 µM. The GI50 (OVCAR-8 ovarian) was over 4.25 µM, the TGI (OVCAR-8 ovarian) was over 5 µM and the GI50 (NCI-H522 lung) was 1040 nM. The TGI (NCI-H522 lung) was over 5 µM, the GI50 (MDA-MB-231 breast) was 2490 nM and the TGI (MDA-MB-231 breast) was over 5 µM. For the same compound, the GI50 (A498 renal) was over 4.12 µM, the TGI (A498 renal) was over 5 µM and the GI50 (OVCAR-5 ovarian) was over 4.67 µM. It also gave a TGI (OVCAR-5 ovarian) of over 5 µM, a GI50 (OVCAR-4 ovarian) of 1580 nM and a TGI (OVCAR-4 ovarian) of over 5 µM. It also gave a GI50 (UO-31 renal) of over 3.96 µM, a TGI (UO-31 renal) of over 5 µM and a GI50 (CCRF-CEM leukemia) of over 4.8 µM. The TGI (CCRF-CEM leukemia) was over 5 µM, the GI50 (MALME-3M melanoma) was 30.6 nM and the TGI (MALME-3M melanoma) was 239 nM. The GI50 (RXF 393 renal) was 2630 nM, the TGI (RXF 393 renal) was over 5 µM and the GI50 (MCF7 breast) was 399 nM. The TGI (MCF7 breast) was over 5 µM, the GI50 (HCC-2998 colon) was 2910 nM and the TGI (HCC-2998 colon) was over 5 µM. It also gave a GI50 (SR leukemia) of 3.37 µM, a TGI (SR leukemia) of over 5 µM and a GI50 (NCI/ADR-RES ovarian) of over 5 µM. It also gave a TGI (NCI/ADR-RES ovarian) of over 5 µM, a GI50 (TK-10 renal) of 3.43 µM and a TGI (TK-10 renal) of over 5 µM. The GI50 (SW-620 colon) was 1650 nM, the TGI (SW-620 colon) was over 5 µM and the GI50 (M14 melanoma) was 221 nM. For the same compound, the TGI (M14 melanoma) was over 5 µM, the GI50 (SK-MEL-28 melanoma) was 199 nM and the TGI (SK-MEL-28 melanoma) was 1370 nM. For the same compound, the GI50 (U251 CNS) was 2190 nM, the TGI (U251 CNS) was over 5 µM and the GI50 (SK-MEL-5 melanoma) was 1100 nM. For the same compound, the TGI (SK-MEL-5 melanoma) was over 3.14 µM, the GI50 (LOX IMVI melanoma) was 1560 nM and the TGI (LOX IMVI melanoma) was over 5 µM. It also gave a GI50 (NCI-H226 lung) of 2060 nM, a TGI (NCI-H226 lung) of over 5 µM and a GI50 (K-562 leukemia) of 2200 nM. For the same compound, the TGI (K-562 leukemia) was over 5 µM, the GI50 (SF-295 CNS) was 1640 nM and the TGI (SF-295 CNS) was over 5 µM. It also gave a GI50 (SF-268 CNS) of 2240 nM, a TGI (SF-268 CNS) of over 5 µM and a GI50 (NCI-H460 lung) of 1510 nM. It also gave a TGI (NCI-H460 lung) of over 5 µM, a GI50 (HCT-15 colon) of over 5 µM and a TGI (HCT-15 colon) of over 5 µM. For the same compound, the GI50 (OVCAR-3 ovarian) was 1680 nM, the TGI (OVCAR-3 ovarian) was over 5 µM and the GI50 (SK-MEL-2 melanoma) was 1440 nM. It also gave a TGI (SK-MEL-2 melanoma) of over 5 µM, a GI50 (SK-OV-3 ovarian) of over 5 µM and a TGI (SK-OV-3 ovarian) of over 5 µM. The GI50 (RPMI-8226 leukemia) was 1160 nM, the TGI (RPMI-8226 leukemia) was 4 µM and the GI50 (HCT-116 colon) was 2040 nM. It also gave a TGI (HCT-116 colon) of over 5 µM, a GI50 (UACC-62 melanoma) of 609 nM and a TGI (UACC-62 melanoma) of over 5 µM. The GI50 (KM12 colon) was over 4.1 µM, the TGI (KM12 colon) was over 5 µM and the GI50 (HOP-92 NSCLC) was 1010 nM. It also gave a TGI (HOP-92 NSCLC) of 3.8 µM, a GI50 (SN12C renal) of 1820 nM and a TGI (SN12C renal) of over 5 µM. The GI50 (ACHN renal) was over 5 µM, the TGI (ACHN renal) was over 5 µM and the GI50 (DU-145 prostate) was 1330 nM. The TGI (DU-145 prostate) was over 5 µM, the GI50 (HL-60(TB) leukemia) was 1300 nM and the TGI (HL-60(TB) leukemia) was over 5 µM. It also gave a GI50 (UACC-257 melanoma) of 446 nM, a TGI (UACC-257 melanoma) of 2670 nM and a GI50 (NCI-H23 lung) of 1380 nM. The TGI (NCI-H23 lung) was over 5 µM, the GI50 (MOLT-4 leukemia) was over 5 µM and the TGI (MOLT-4 leukemia) was over 5 µM. For the same compound, the GI50 (SNB-75 CNS) was 1070 nM, the TGI (SNB-75 CNS) was over 5 µM and the GI50 (SF-539 CNS) was 2280 nM. For the same compound, the TGI (SF-539 CNS) was over 5 µM, the GI50 (PC-3 prostate) was 1980 nM and the TGI (PC-3 prostate) was over 5 µM.
